Assay results from patent US6835382B2, “Ii peptide therapeutics to enhance antigen presentation” (University of Massachusetts, priority 1996, dated 2004).
Positions of bridges follow the written chain, without caps; N, C: chain ends. Non-standard residues stand in square brackets, D forms with d. No end group written: not given here. hArg = N=C(N)NCCCC[C@H](N)C(=O)O; Cit = NC(=O)NCCC[C@H](N)C(=O)O

Each substance was assayed on murine E^k MHC class II allele (assay: antigenic peptide prepulse assay, E^k allele (fixed APC prepulsed with PGCC81-104)). Conditions: Table 25; AE peptide 64 μM; prepulse 2.5 μM antigenic peptide; supernatant 1:10.
Format: cell-based
Experimental: In a second type of assay, the “peptide prepulse assay”, the antigenic peptide is incubated with paraformaldehyde-fixed APC for 6 h. The APC are washed and incubated for 24 h with the AE101 series homolog and the T cell hybridoma specific for the antigenic peptide. After that incubation, an aliquot of the culture supernatant is transferred to a second culture to measure the relative degree of T hybridoma stimulation, as reflected in the effect of released interleukins on the growth of an interleukin-dependent, indicator cell line, as described above.
The two above described assays measure different aspects of the molecular mechanism of the AE101 series of peptides. In the “simultaneous assay”, AE101 series peptides are thought to induce the release of endogenously bound peptides and to permit the binding of the second, specific antigenic peptide which is relatively abundant in the culture fluid. The AE101 series peptides enhance antigenic peptide-specific T cell responses in simultaneous assays. In the “peptide prepulse” assay, the specific antigenic peptide becomes bound to MHC class II molecules on the surface of the fixed APC during the 6 h prepulse incubation. The effect of the AE101 series homologs is then thought to release that antigenic peptide, resulting in an apparent suppression of the immune response.
The AE101 series peptides are thought to contact the MHC class II molecules at a discrete site outside the antigenic peptide-binding groove. AE101 peptide binding to this “Ii-KEY” site is thought to induce a conformational change in the MHC class II molecules accelerating the dissociation of previously bound antigenic peptide. […] The AE101 series peptides thus inhibit antigenic peptide-specific T cell responses in the “peptide prepulse” assays.
Antigenic peptide-specific T cell activation was measured by the following procedure. Mitomycin C-treated A20 cells (A^dE^d) or CH27 cells APC (A^kE^k) were generated by incubating 5×10^6 cells/mL for 20 min at 37° C. with 0.025 mg/mL of mitomycin C (Sigma) in Dulbecco's Modified Eaglel's Medium (DMEM)/10 mM N-2(hydroxyethylpiperazine-N″[2-ethanesulfonic acid] (HEPES), followed by two washes with four volumes of DMEM-5% fetal calf serum (FCS), 10 mM HEPES. Fixed APC were generated by treating 1×10^6 cells/mL for 5 min with 0.5% paraformaldehyde in PBS (pH 7.2), followed by two washes with four volumes of DMEM-10% FCS, 10 mM HEPES. T cell hybridomas were irradiated 2200 rads before each assay.
The “peptide prepulse assay” was carried out under essentially the same conditions as described for the “simultaneous assay” with the following modifications. Fixed APC were first incubated for 6 h at 1×10^6 cells/mL in complete DMEM-5% FCS in 24-well microculture plates (1 mL/well) with antigenic peptide, followed by four washes with 10 volumes of DMEM-5% FCS. The cells were then exposed to varying concentrations of AE101 series peptide (64 μM, 16 μM, 4 μM, and 1 μM) for 24 h in the presence of the T cell hybridoma specific to the antigenic peptide. Interleukin release from these cultures was measured by proliferation of HT-2 cells to interleukins in supernatants transferred from the primary culture. Generally, a single dose of 64 μM of each AE101 series peptide was used. The baseline T cell response was measured by culturing T hybridoma cells with the antigenic peptide-prepulsed APC in the absence of AE101 series peptides.
Table 19: Activities of C-terminal truncation analogs of AE101 in an antigenic peptide prepulse assay. […] Paraformaldehyde-treated APC (fixed APC) expressing MHC class II molecules were incubated with antigenic peptide for 6 h (HEL106-116 for E^d and PGCC81-104 for E^k). After this incubation, the prepulsed APC were washed and cultured with T hybridoma cells and AE101 series peptides. The antigenic peptide concentration during the prepulse was 12 μM for Ed and 20 μM for E^k. The AE101 series peptide concentrations were 64 μM for E^d and 16 μM for E^k. […]

Substance | Activity in antigenic peptide prepulse assay, E^k (baseline = 1.00)
Ac-A[Cit]NKNPK-NH2 [AE351] | 0.90
Ac-LR Orn K HArg PK-NH2 [AE340] | 0.83
Ac-LRMKNPF-NH2 [AE350] | 0.86

Same assay, conditions: Table 26; AE peptide 64 μM; prepulse 1.25 μM antigenic peptide; supernatant 1:8

Substance | Activity in antigenic peptide prepulse assay, E^k (baseline = 1.0)
Ac-FK HArg MYP Cit-NH2 [AE371] | 0.99
Ac-LK HArg KYPK-NH2 [AE363] | 0.97
Ac-LKMKYPK-NH2 [AE362] | 0.91
Ac-LR HArg KYP Cit-NH2 [AE366] | 0.94
Ac-LR HArg MYPK-NH2 [AE365] | 0.42
Ac-LRLKYPN-NH2 [AE368] | 0.92
Ac-LRMKYPN-NH2 [AE370] | 0.58
Ac-LRMKYP[Cit]-NH2 [AE364] | 0.93
Ac-LRMMYP[Cit]-NH2 [AE367] | 0.99
Ac-L[hArg]LKYPK-NH2 [AE361] | 1.00
Ac-L[hArg]MKYPK-NH2 [AE360] | 0.94

Same assay, conditions: Table 28; AE peptide 64 μM; prepulse 1.25 μM antigenic peptide; supernatant 1:4

Substance | Activity in antigenic peptide prepulse assay, E^k (baseline = 1.0)
Ac-LRMKLPK (lactam 4-C) [AE382] | 0.70
cyclic LRMKLPK (bridge (positions not given here); also: cyclic, ring type not given here) [AE381, “head-to-tail” cyclization from the amino-terminus to the carboxyl-terminus of AE114] | 0.28
